Usually solubility stands for how much of the substance goes into solution per volume. Low readings indicate a poorly soluble substance, high ones a readily soluble substance.

Values after ≈ are worked out from the molar mass of the structure shown. Positions of bridges follow the written chain, without caps; N, C: chain ends. Non-standard residues stand in square brackets, D forms with d. Residues, ends and D or L forms follow the SMILES beside them. Groups on a side chain read outwards from the residue. *: point of attachment. Palmitoyl(16-(5-tetrazolyl)) = O=C(CCCCCCCCCCCCCCCc1nnn[nH]1)*; Lys(CH2CO2H)2 = N[C@@H](CCCCN(CC(=O)O)CC(=O)O)C(=O)O; X1 = O=C(O)CCCCCCCCCCCCCCCCC(=O)NCCOCCOCCN*; C18 diacid = O=C(O)CCCCCCCCCCCCCCCCC(=O)*; C16 diacid = O=C(O)CCCCCCCCCCCCCCC(=O)*; Hyp = O=C(O)[C@@H]1C[C@@H](O)CN1; hCys = N[C@@H](CCS)C(=O)O; Orn = NCCC[C@H](N)C(=O)O; Dab = NCC[C@H](N)C(=O)O; AEEA = NCCOCCOCC(=O)O

A short description of this data set: physchem. The method, then: From a stock solution in vehicle, either H2O or 10 mM phosphate, containing 1 mg (as weighed) compound per ml, 8-11 aliquots are withdrawn and pH-adjusted individually with HCl/NaOH, to cover the whole pH range.

`CC(=O)N[C@H]1CCCNC(=O)C[C@@H](C(=O)N2CCC[C@H]2C(=O)N2CCC[C@H]2C(=O)N[C@@H](CCCNC(=N)N)C(=O)N[C@@H](CCC(=O)O)C(=O)N[C@@H](CCCCN(CC(=O)O)CC(=O)O)C(=O)N[C@@H](CCCCNC(=O)COCCOCCNC(=O)CCCCCCCCCCCCCCC(=O)O)C(N)=O)NC(=O)[C@H](Cc2c[nH]c3ccccc23)NC(=O)[C@H](CCCNC(=N)N)NC(=O)[C@@H](Cc2ccccc2)NC(=O)[C@H](Cc2c[nH]cn2)NC1=O` [Example 42, Ac-c[Orn-His-D-Phe-Arg-Trp-Asp]-Pro-Pro-Arg-Glu-Lys(biscarboxymethyl)-Lys({2-[2-(15-carboxypentadecanoylamino)ethoxy]ethoxy}acetyl)-NH2] (Ac-[Orn]H[dF]RWDPPRE[Lys(CH2CO2H)2]K([AEEA-C16 diacid])-NH2; lactam 1-6): the solubility reads like this: (pH 4.9, Solubility Conc.) 153 µM (≈ 331 µg/mL); (pH 5.8, Solubility Conc.) 240 µM (≈ 519 µg/mL); (pH 6.4, Solubility Conc.) 364 µM (≈ 787 µg/mL); (pH 6.7, Solubility Conc.) 421 µM (≈ 910 µg/mL); (pH 7, Solubility Conc.) 449 µM (≈ 971 µg/mL); (pH 7.2, Solubility Conc.) 438 µM (≈ 947 µg/mL). In addition, the solubility is, setting by setting: (pH 7.5, Solubility Conc.) 441 µM (≈ 954 µg/mL); (pH 7.9, Solubility Conc.) 476 µM (≈ 1030 µg/mL); (pH 8.1, Solubility Conc.) 417 µM (≈ 902 µg/mL).
For the compound `CC(=O)N[C@H]1CCC(=O)NCCC[C@@H](C(=O)N2CCC[C@H]2C(=O)N2CCC[C@H]2C(=O)N[C@@H](Cc2c[nH]cn2)C(=O)N[C@@H](CC(=O)O)C(=O)N[C@@H](CCCCN(CC(=O)O)CC(=O)O)C(=O)N[C@@H](CCCCNC(=O)COCCOCCNC(=O)CCCCCCCCCCCCCCCc2nnn[nH]2)C(N)=O)NC(=O)[C@H](Cc2c[nH]c3ccccc23)NC(=O)[C@H](CCCNC(=N)N)NC(=O)[C@@H](Cc2ccccc2)NC(=O)[C@H](Cc2c[nH]cn2)NC1=O` [Example 43, Ac-c[Glu-His-D-Phe-Arg-Trp-Orn]-Pro-Pro-His-Asp-Lys(biscarboxymethyl)-Lys[(2-{2-[16-(tetrazol-5-yl)hexadecanoylamino]ethoxy}ethoxy)acetyl]-NH2] (Ac-EH[dF]RW[Orn]PPHD[Lys(CH2CO2H)2]K([AEEA-Palmitoyl(16-(5-tetrazolyl))])-NH2; lactam 1-6), the solubility runs as follows: (pH 5.9, Solubility Conc.) 27 µM (≈ 58.9 µg/mL); (pH 6.5, Solubility Conc.) 75 µM (≈ 164 µg/mL); (pH 6.7, Solubility Conc.) 315 µM (≈ 687 µg/mL); (pH 6.8, Solubility Conc.) 478 µM (≈ 1040 µg/mL); (pH 7.2, Solubility Conc.) 478 µM (≈ 1040 µg/mL); (pH 7.4, Solubility Conc.) 506 µM (≈ 1100 µg/mL). The concentration in solution (pH 7.7, Solubility Conc.) (solubility) was 487 µM (≈ 1060 µg/mL); the solubility (pH 7.9, Solubility Conc.) worked out at 490 µM (≈ 1070 µg/mL); the solubility (pH 8.1, Solubility Conc.) is 493 µM (≈ 1080 µg/mL).
In the case of `CC(=O)N[C@H]1CCNC(=O)C[C@@H](C(=O)N2CCC[C@H]2C(=O)N[C@@H](CO)C(=O)N[C@@H](CO)C(=O)N[C@@H](CO)C(=O)N[C@@H](CCCCN(CC(=O)O)CC(=O)O)C(=O)N[C@@H](CO)C(=O)N[C@@H](CO)C(=O)NCCOCCOCCNC(=O)CCCCCCCCCCCCCCCCC(=O)O)NC(=O)[C@H](Cc2c[nH]c3ccccc23)NC(=O)[C@H](CCCNC(=N)N)NC(=O)[C@@H](Cc2ccccc2)NC(=O)[C@H](Cc2c[nH]cn2)NC1=O` [Example 3, Ac-c[Dab-His-D-Phe-Arg-Trp-Asp]-Pro-Ser-Ser-Ser-Lys(biscarboxymethyl)-Ser-Ser-NH(2-{2-[2-(17-carboxyheptadecanoylamino)ethoxy]ethoxy}ethyl)] (Ac-[Dab]H[dF]RWDPSSS[Lys(CH2CO2H)2]SS-X1; lactam 1-6), the solubility by setting is: (pH 4.9, Solubility Conc., pH 4.9, vehicle 10 mM phosphate) 24 µM (≈ 50.1 µg/mL); (pH 5.6, Solubility Conc., pH 5.6, vehicle 10 mM phosphate) 32 µM (≈ 66.8 µg/mL); (pH 6.1, Solubility Conc., pH 6.1, vehicle 10 mM phosphate) 54 µM (≈ 113 µg/mL); (pH 6.7, Solubility Conc., pH 6.7, vehicle 10 mM phosphate) 154 µM (≈ 321 µg/mL); (pH 6.9, Solubility Conc., pH 6.9, vehicle 10 mM phosphate) 295 µM (≈ 616 µg/mL); (pH 7.1, Solubility Conc., pH 7.1, vehicle 10 mM phosphate) 396 µM (≈ 827 µg/mL). The solubility (pH 7.2, Solubility Conc., pH 7.2, vehicle 10 mM phosphate) was determined as 401 µM (≈ 837 µg/mL); the solubility (pH 7.4, Solubility Conc., pH 7.4, vehicle 10 mM phosphate) is 396 µM (≈ 827 µg/mL); the solubility (pH 7.7, Solubility Conc., pH 7.7, vehicle 10 mM phosphate) worked out at 345 µM (≈ 720 µg/mL); the solubility (pH 8.1, Solubility Conc., pH 8.1, vehicle 10 mM phosphate) came out at 360 µM (≈ 751 µg/mL).
On to `CC(=O)N[C@H]1CCCNC(=O)C[C@@H](C(=O)N2CCC[C@H]2C(=O)N2CCC[C@H]2C(=O)N[C@@H](CCCNC(=N)N)C(=O)N[C@@H](CCC(=O)O)C(=O)N[C@@H](CCCCN(CC(=O)O)CC(=O)O)C(=O)N[C@@H](CCCCNC(=O)COCCOCCNC(=O)CCCCCCCCCCCCCCCc2nnn[nH]2)C(N)=O)NC(=O)[C@H](Cc2c[nH]c3ccccc23)NC(=O)[C@H](CCCNC(=N)N)NC(=O)[C@@H](Cc2ccccc2)NC(=O)[C@H](Cc2c[nH]cn2)NC1=O` [Example 19, Ac-c[Orn-His-D-Phe-Arg-Trp-Asp]-Pro-Pro-Arg-Glu-Lys(biscarboxymethyl)-Lys[(2-{2-[16-(tetrazol-5-yl)hexadecanoylamino]ethoxy}ethoxy)acetyl]-NH2] (Ac-[Orn]H[dF]RWDPPRE[Lys(CH2CO2H)2]K([AEEA-Palmitoyl(16-(5-tetrazolyl))])-NH2; lactam 1-6), for which the solubility runs as follows: (pH 6.3, Solubility Conc.) 26 µM (≈ 57.2 µg/mL); (pH 6.7, Solubility Conc.) 38 µM (≈ 83.6 µg/mL); (pH 6.9, Solubility Conc.) 70 µM (≈ 154 µg/mL); (pH 7.2, Solubility Conc.) 433 µM (≈ 953 µg/mL); (pH 7.3, Solubility Conc.) 447 µM (≈ 984 µg/mL); (pH 7.5, Solubility Conc.) 474 µM (≈ 1040 µg/mL). Also, the solubility amounted to 517 µM (≈ 1140 µg/mL) (pH 7.7, Solubility Conc.) and 441 µM (≈ 970 µg/mL) (pH 7.9, Solubility Conc.).
`CC(=O)N[C@H]1CCC(=O)NCCC[C@@H](C(=O)N2C[C@H](O)C[C@H]2C(=O)N2C[C@H](O)C[C@H]2C(=O)N[C@@H](CCCNC(=N)N)C(=O)N[C@@H](CC(=O)O)C(=O)N[C@@H](CCCCN(CC(=O)O)CC(=O)O)C(=O)N[C@@H](CCCCNC(=O)COCCOCCNC(=O)CCCCCCCCCCCCCCCc2nnn[nH]2)C(N)=O)NC(=O)[C@H](Cc2c[nH]c3ccccc23)NC(=O)[C@H](CCCNC(=N)N)NC(=O)[C@@H](Cc2ccccc2)NC(=O)[C@H](Cc2c[nH]cn2)NC1=O` [Example 56, Ac-c[Glu-His-D-Phe-Arg-Trp-Orn]-Hyp-Hyp-Arg-Asp-Lys(biscarboxymethyl)-Lys[(2-{2-[16-(tetrazol-5-yl)hexadecanoylamino]ethoxy}ethoxy)acetyl]-NH2] (Ac-EH[dF]RW[Orn][Hyp][Hyp]RD[Lys(CH2CO2H)2]K([AEEA-Palmitoyl(16-(5-tetrazolyl))])-NH2; lactam 1-6): the solubility runs as follows: (pH 6.8, Solubility Conc.) 47 µM (≈ 105 µg/mL); (pH 7.1, Solubility Conc.) 79 µM (≈ 176 µg/mL); (pH 7.4, Solubility Conc.) 169 µM (≈ 377 µg/mL); (pH 7.5, Solubility Conc.) 395 µM (≈ 882 µg/mL); (pH 7.6, Solubility Conc.) 521 µM (≈ 1160 µg/mL); (pH 7.7, Solubility Conc.) 408 µM (≈ 911 µg/mL). The solubility is, setting by setting: (pH 7.8, Solubility Conc.) 524 µM (≈ 1170 µg/mL); (pH 8, Solubility Conc.) 392 µM (≈ 875 µg/mL).
On to `CC(=O)N[C@H]1CCCNC(=O)C[C@@H](C(=O)N2CCC[C@H]2C(=O)N2CCC[C@H]2C(=O)N[C@@H](Cc2c[nH]cn2)C(=O)N[C@@H](CCC(=O)O)C(=O)N[C@@H](CCCCN(CC(=O)O)CC(=O)O)C(=O)N[C@@H](CCCCNC(=O)COCCOCCNC(=O)CCCCCCCCCCCCCCC(=O)O)C(N)=O)NC(=O)[C@H](Cc2c[nH]c3ccccc23)NC(=O)[C@H](CCCNC(=N)N)NC(=O)[C@@H](Cc2ccccc2)NC(=O)[C@H](Cc2c[nH]cn2)NC1=O` [Example 51, Ac-c[Orn-His-D-Phe-Arg-Trp-Asp]-Pro-Pro-His-Glu-Lys(biscarboxymethyl)-Lys({2-[2-(15-carboxypentadecanoylamino)ethoxy]ethoxy}acetyl)-NH2] (Ac-[Orn]H[dF]RWDPPHE[Lys(CH2CO2H)2]K([AEEA-C16 diacid])-NH2; lactam 1-6), for which the solubility was 204 µM (≈ 437 µg/mL) (pH 5.3, Solubility Conc.); 280 µM (≈ 600 µg/mL) (pH 5.8, Solubility Conc.); 359 µM (≈ 770 µg/mL) (pH 6.1, Solubility Conc.); 450 µM (≈ 965 µg/mL) (pH 6.4, Solubility Conc.); 460 µM (≈ 986 µg/mL) (pH 6.7, Solubility Conc.); 442 µM (≈ 947 µg/mL) (pH 7, Solubility Conc.). For the same compound, the solubility is, setting by setting: (pH 7.3, Solubility Conc.) 468 µM (≈ 1000 µg/mL); (pH 7.6, Solubility Conc.) 485 µM (≈ 1040 µg/mL); (pH 7.8, Solubility Conc.) 457 µM (≈ 980 µg/mL).
Regarding `CC(=O)N[C@H]1CCSSC[C@@H](C(=O)N[C@@H](CO)C(=O)N2CCC[C@H]2C(=O)N[C@@H](Cc2c[nH]cn2)C(=O)N[C@@H](CCC(=O)O)C(=O)N[C@@H](CCCCN(CC(=O)O)CC(=O)O)C(=O)N[C@@H](CCCCNC(=O)COCCOCCNC(=O)CCCCCCCCCCCCCCCCC(=O)O)C(N)=O)NC(=O)[C@H](Cc2c[nH]c3ccccc23)NC(=O)[C@H](CCCNC(=N)N)NC(=O)[C@@H](Cc2ccccc2)NC(=O)[C@H](Cc2c[nH]cn2)NC1=O` [Example 62, Ac-c[homoCys-His-D-Phe-Arg-Trp-Cys]-Ser-Pro-His-Glu-Lys(biscarboxymethyl)-Lys({2-[2-(17-carboxyheptadecanoylamino)ethoxy]ethoxy}acetyl)-NH2] (Ac-[hCys]H[dF]RWCSPHE[Lys(CH2CO2H)2]K([AEEA-C18 diacid])-NH2; disulfide 1-6), the solubility worked out at 235 µM (≈ 510 µg/mL) (pH 3.4, Solubility Conc.); 15 µM (≈ 32.5 µg/mL) (pH 5, Solubility Conc.); 41 µM (≈ 88.9 µg/mL) (pH 6.7, Solubility Conc.); 82 µM (≈ 178 µg/mL) (pH 6.9, Solubility Conc.); 42 µM (≈ 91.1 µg/mL) (pH 7, Solubility Conc.); 241 µM (≈ 523 µg/mL) (pH 7.3, Solubility Conc.). The compound also had a solubility (pH 7.4, Solubility Conc.) of 243 µM (≈ 527 µg/mL); a solubility (pH 7.7, Solubility Conc.) of 251 µM (≈ 544 µg/mL); a solubility (pH 7.9, Solubility Conc.) of 245 µM (≈ 531 µg/mL); a solubility (pH 8, Solubility Conc.) of 233 µM (≈ 505 µg/mL).

These data come from patent US20130012432A1, “Peptides for Treatment of Obesity” (Novo Nordisk A/S, priority 2010, published 2013).
